This assay has as its target T1, human recombinant IL-17A (Homo sapiens, UniProt Q16552).
T1 construct: purchased R&D Systems 7955-IL/CF
T1 sequence (Q16552 24-155): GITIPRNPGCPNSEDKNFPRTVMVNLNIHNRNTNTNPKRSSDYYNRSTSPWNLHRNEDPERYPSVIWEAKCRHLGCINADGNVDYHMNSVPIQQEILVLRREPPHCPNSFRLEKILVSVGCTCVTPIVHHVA
Description: IL-17A AlphaLISA assay (block binding of IL-17A to its receptor IL-17RA). As to conditions: read-out: AlphaLISA pIC50 (converted). How it is done: The ability of the compounds to block binding of IL-17A to its receptor, IL-17RA, was analysed in a competition assay using AlphaLISA technology (Perkin Elmer). The assay is a bead based AlphaLISA where the IL-17RA is captured on the acceptor bead via an Fc tag and IL-17A is captured on the streptavidin donor bead via a biotinylated anti-IL17A antibody.
Assay buffer was prepared by adding 0.05% Tween-20 (v/v) and 0.1% BSA to Phosphate Buffered Saline (PBS). The assay was carried out in 384-well white low volume plates (Corning 4512). 10 µL of a 7.5 nM stock of human recombinant IL-17A (R&D Systems 7955-IL/CF) diluted in assay buffer was dispensed into the assay plate and compounds or DMSO vehicle control were added in a volume of 75 nL using a D300 dispenser (Hewlett Packard). The compounds were pre-incubated with the IL-17A for 24 h at room temperature (or for 30 min, where indicated by * in Table A below) prior to addition of 5 μL of a 5 nM stock of human recombinant IL-17RA/Fc chimera (R&D Systems 177-IR-100) diluted in assay buffer. The IL-17A was incubated with the receptor for a further 90 minutes at room temperature before addition of 5 μL of a mixture of anti-human Fc IgG acceptor beads (75 μg/mL, Perkin Elmer AL103C) and anti-IL-17A biotin conjugated antibody (5 nM, Enzo Life Sciences, ENZ-ABS278-0100) in assay buffer. After a further 30 min incubation at room temperature, 5 μL of streptavidin donor beads ([…], Perkin Elmer 6760002S) were added and the plate was incubated for 3 h in the dark.
The luminescence signal was measured using an Enspire plate reader (Perkin Elmer) with excitation at 680 nm and emission at 615 nm. Data were analysed using GraphPad Prism and fitted to a 4-parameter logistic equation. The IC50 values were calculated using the DMSO vehicle as the negative control and a high concentration (6 μM) of a reference IL-17A inhibitor as the positive control.
Activity of the Example compounds is reported as a PIC50 value in Table A.

[1] abbreviates: compounds pre-incubated with the IL-17A for 30 min (indicated by * in Table A).
The mark [2] stands for this setting: compounds pre-incubated with the IL-17A for 24 h at room temperature.

Where two headings read alike, the source gives them in different places.

With `Cc1cncc(C)c1-c1ccc(NC(=O)[C@@H](NC(=O)c2ccnn2C)C2CCC(F)(F)CC2)cc1` (single isomer, unassigned) [Example 98], under setting [1], the IC50 was 251 nM.
Same read-out and setting: as for `Cc1cncc(C)c1-c1ccc(NC(=O)[C@@H](NC(=O)c2ccnn2C)C2CCC(C)(C)CC2)cc1` (single isomer, unassigned) [Example 100], the figure is 200 nM.
As for `Cc1nccc(-c2ccc(NC(=O)[C@@H](NC(=O)c3ccnn3C)C(c3ccccc3)c3ccccc3)cc2)c1C` [Example 1, (S)—N-(1-((4-(2,3-dimethylpyridin-4-yl)phenyl)amino)-1-oxo-3,3-diphenylpropan-2-yl)-1-methyl-1H-pyrazole-5-carboxamide], the IC50 under setting [2] is 50.1 nM.
The same measure, in the same setting: as for `Cn1nccc1C(=O)N[C@H](C(=O)Nc1ccc(-c2ccncc2Cl)cc1)C(c1ccccc1)c1ccccc1` [Example 2, (S)—N-(1-((4-(3-chloropyridin-4-yl)phenyl)amino)-1-oxo-3,3-diphenylpropan-2-yl)-1-methyl-1H-pyrazole-5-carboxamide], the figure is 31.6 nM; as for `COc1cnccc1-c1ccc(NC(=O)[C@@H](NC(=O)c2ccnn2C)C(c2ccccc2)c2ccccc2)cc1` [Example 3, (S)—N-(1-((4-(3-methoxypyridin-4-yl)phenyl)amino)-1-oxo-3,3-diphenylpropan-2-yl)-1-methyl-1H-pyrazole-5-carboxamide], 12.6 nM.
Still for that read-out and setting: as for `Cc1cnccc1-c1ccc(NC(=O)[C@@H](NC(=O)c2ccnn2C)C(c2ccccc2)c2ccccc2)cc1` [Example 4, (S)-1-methyl-N-(1-((4-(3-methylpyridin-4-yl)phenyl)amino)-1-oxo-3,3-diphenylpropan-2-yl)-1H-pyrazole-5-carboxamide], the figure is 20 nM; as for `Cn1nccc1C(=O)N[C@H](C(=O)Nc1ccc(-c2ccncc2C(F)(F)F)cc1)C(c1ccccc1)c1ccccc1` [Example 5, (S)-1-methyl-N-(1-oxo-3,3-diphenyl-1-((4-(3-(trifluoromethyl)pyridin-4-yl)phenyl)amino)propan-2-yl)-1H-pyrazole-5-carboxamide], 63.1 nM.
Still for that read-out and setting: under `Cc1cncc(C)c1-c1ccc(NC(=O)[C@@H](NC(=O)c2ccnn2C)C(c2ccccc2)c2ccccc2)cc1` [Example 6, (S)—N-(1-((4-(3,5-dimethylpyridin-4-yl)phenyl)amino)-1-oxo-3,3-diphenylpropan-2-yl)-1-methyl-1H-pyrazole-5-carboxamide] stands 12.6 nM; under `CNc1cnccc1-c1ccc(NC(=O)[C@@H](NC(=O)c2ccnn2C)C(c2ccccc2)c2ccccc2)cc1` [Example 7, (S)-1-methyl-N-(1-((4-(3-(methylamino)pyridin-4-yl)phenyl)amino)-1-oxo-3,3-diphenylpropan-2-yl)-1H-pyrazole-5-carboxamide], 12.6 nM; under `CN(C)c1cnccc1-c1ccc(NC(=O)[C@@H](NC(=O)c2ccnn2C)C(c2ccccc2)c2ccccc2)cc1` [Example 8, (S)—N-(1-((4-(3-(dimethylamino)pyridin-4-yl)phenyl)amino)-1-oxo-3,3-diphenylpropan-2-yl)-1-methyl-1H-pyrazole-5-carboxamide], 15.8 nM.
Consider `COc1cncc(OC)c1-c1ccc(NC(=O)[C@@H](NC(=O)c2ccnn2C)C(c2ccccc2)c2ccccc2)cc1` [Example 9, (S)—N-(1-((4-(3,5-dimethoxypyridin-4-yl)phenyl)amino)-1-oxo-3,3-diphenylpropan-2-yl)-1-methyl-1H-pyrazole-5-carboxamide], for which, under setting [2], the IC50 is 6.31 nM.
As for `COc1cncc(F)c1-c1ccc(NC(=O)[C@@H](NC(=O)c2ccnn2C)C(c2ccccc2)c2ccccc2)cc1` [Example 10, (S)—N-(1-((4-(3-fluoro-5-methoxypyridin-4-yl)phenyl)amino)-1-oxo-3,3-diphenylpropan-2-yl)-1-methyl-1H-pyrazole-5-carboxamide], the IC50 under setting [2] is 7.94 nM.
On the same count and under the same terms, under `Cc1[nH]c(=O)ccc1-c1ccc(NC(=O)[C@@H](NC(=O)c2ccnn2C)C(c2ccccc2)c2ccccc2)cc1` [Example 11, (S)-1-methyl-N-(1-((4-(2-methyl-6-oxo-1,6-dihydropyridin-3-yl)phenyl)amino)-1-oxo-3,3-diphenylpropan-2-yl)-1H-pyrazole-5-carboxamide] stands 15.8 nM; under `Cc1cc(=O)n(C)cc1-c1ccc(NC(=O)[C@@H](NC(=O)c2ccnn2C)C(c2ccccc2)c2ccccc2)cc1` [Example 12, (S)—N-(1-((4-(1,4-dimethyl-6-oxo-1,6-dihydropyridin-3-yl)phenyl)amino)-1-oxo-3,3-diphenylpropan-2-yl)-1-methyl-1H-pyrazole-5-carboxamide], 10 nM; under `Cc1c(-c2ccc(NC(=O)[C@@H](NC(=O)c3ccnn3C)C(c3ccccc3)c3ccccc3)cc2)ccc(=O)n1C` [Example 13, (S)—N-(1-((4-(1,2-dimethyl-6-oxo-1,6-dihydropyridin-3-yl)phenyl)amino)-1-oxo-3,3-diphenylpropan-2-yl)-1-methyl-1H-pyrazole-5-carboxamide], 7.94 nM.
As for `Cc1cncc(C)c1-c1ccc(NC(=O)[C@@H](NC(=O)c2ccnn2C)C(c2ccccc2)c2ccccc2)cc1F` [Example 14, (S)—N-(1-((4-(3,5-dimethylpyridin-4-yl)-3-fluorophenyl)amino)-1-oxo-3,3-diphenylpropan-2-yl)-1-methyl-1H-pyrazole-5-carboxamide], the IC50 under setting [2] is 39.8 nM.
Still for that read-out and setting: under `Cc1cnccc1-c1ccc(NC(=O)[C@@H](NC(=O)c2ccnn2C)C(c2ccccc2)c2ccccc2)cc1F` [Example 15, (S)—N-(1-((3-fluoro-4-(3-methylpyridin-4-yl)phenyl)amino)-1-oxo-3,3-diphenylpropan-2-yl)-1-methyl-1H-pyrazole-5-carboxamide] stands 50.1 nM; under `Cc1c(-c2ccc(NC(=O)[C@@H](NC(=O)c3ccnn3C)C(c3ccccc3)c3ccccc3)cc2F)ccc(=O)n1C` [Example 16, (S)—N-(1-((4-(1,2-dimethyl-6-oxo-1,6-dihydropyridin-3-yl)-3-fluorophenyl)amino)-1-oxo-3,3-diphenylpropan-2-yl)-1-methyl-1H-pyrazole-5-carboxamide], 15.8 nM.
For the compound `Cc1cc(=O)n(C)cc1-c1ccc(NC(=O)[C@@H](NC(=O)c2ccnn2C)C(c2ccccc2)c2ccccc2)cc1F` [Example 17, (S)—N-(1-((4-(1,4-dimethyl-6-oxo-1,6-dihydropyridin-3-yl)-3-fluorophenyl)amino)-1-oxo-3,3-diphenylpropan-2-yl)-1-methyl-1H-pyrazole-5-carboxamide], the IC50 under setting [2] is 15.8 nM.
Take `COc1cncc(F)c1-c1ccc(NC(=O)[C@@H](NC(=O)c2ccnn2C)C(c2ccccc2)c2ccccc2)cc1F` [Example 18, N-((2S)-1-((3-fluoro-4-(3-fluoro-5-methoxypyridin-4-yl)phenyl)amino)-1-oxo-3,3-diphenylpropan-2-yl)-1-methyl-1H-pyrazole-5-carboxamide]: the IC50 under setting [2] was 31.6 nM.
Same read-out and setting: under `COc1cnccc1-c1ccc(NC(=O)[C@@H](NC(=O)c2ccnn2C)C(c2ccc(F)cc2)c2ccc(F)cc2)cc1` [Example 19, (S)—N-(1,1-bis(4-fluorophenyl)-3-((4-(3-methoxypyridin-4-yl)phenyl)amino)-3-oxopropan-2-yl)-1-methyl-1H-pyrazole-5-carboxamide] stands 63.1 nM; under `COc1cnccc1-c1ccc(NC(=O)[C@@H](NC(=O)c2ccnn2C)C(c2ccccc2)c2ccccc2)cc1C` [Example 20, (S)—N-(1-((4-(3-methoxypyridin-4-yl)-3-methylphenyl)amino)-1-oxo-3,3-diphenylpropan-2-yl)-1-methyl-1H-pyrazole-5-carboxamide], 31.6 nM.
For the compound `Cn1nccc1C(=O)N[C@H](C(=O)Nc1ccc(-c2ccnc3[nH]ccc23)cc1)C(c1ccccc1)c1ccccc1` [Example 21, (S)—N-(1-((4-(1H-pyrrolo[2,3-b]pyridin-4-yl)phenyl)amino)-1-oxo-3,3-diphenylpropan-2-yl)-1-methyl-1H-pyrazole-5-carboxamide], the IC50 under setting [2] was 39.8 nM.
As for `Cn1nccc1C(=O)N[C@H](C(=O)Nc1ccc(-c2ccnc3c2CCN3)cc1)C(c1ccccc1)c1ccccc1` [Example 22, (S)—N-(1-((4-(2,3-dihydro-1H-pyrrolo[2,3-b]pyridin-4-yl)phenyl)amino)-1-oxo-3,3-diphenylpropan-2-yl)-1-methyl-1H-pyrazole-5-carboxamide], the IC50 under setting [2] is 25.1 nM.

(Values after patent US20230227427A1, “IL-17A MODULATORS” (SANOFI, priority 2010, published 2023).)
